# In patent publication US4496551A (priority 1983, dated 1985):
# Legend:
# Erysiphe cichoracearum = test: cucumber powdery mildew control on cucumber seedlings; format: in vivo; details: Golovinomyces cichoracearum, 168 h, 7 days
# Method in brief: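 Compounds at 100 ppm in water with 6% acetone and 250 ppm TREM 014 surfactant, sprayed to run-off on cucumber seedlings. Inoculation with Erysiphe cichoracearum spores the following day; disease rated after 7 days in a growth room against untreated plants.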
# Venturia inaequalis = test: apple scab control on apple seedlings; format: in vivo; details: Venturia inaequalis; 100 ppm
# Method in brief: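 Apple seedlings sprayed to run-off with 100 ppm compound suspension (6% acetone, 250 ppm TREM 014 surfactant). Inoculated next day with Venturia inaequalis spores; 24 hours at 20° in saturated humidity, then 10-12 days in growth room. Scab lesions compared with untreated plants.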
# 5 Phytophthora species = format: cell-based; details: 200.0 ppm in agar, 22° C., 6 days; controlled = radial growth 1 mm or less
# Phytophthora infestans = test: whole plant or invertebrate; format: in vivo; details: Phytophthora infestans, in Solanum lycopersicum, 168 h, read-out: % Control of Tomato Late Blight
# Erysiphe graminis = test: barley powdery mildew control on barley seedlings; format: in vivo; details: Blumeria graminis, 168 h; for pest or weed control at 100 ppm: 7 days
# Description: Several compounds of the previous examples were again dissolved in acetone in an amount equal to 6% of the final volume and then suspended at a concentration of 100 ppm in purified water containing 250 ppm of the surfactant TREM 014 (polyhydric alcohol esters). This suspension was sprayed to the point of run-off on barley seedlings. The following day, the plants were inoculated with a spore suspension of the fungus Erysiphe graminis, causal agent of barley powdery mildew, and incubated in a growth room for 7 days. Disease ratings were then made. Treated plants had little or no powdery mildew in contrast to untreated plants which were covered with powdery mildew.
# Helminthosporium maydis = test: southern corn leaf blight control on corn seedlings; format: in vivo; details: Bipolaris maydis, 168 h
# Method in brief: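 Corn seedlings were sprayed to run-off with 100 ppm compound (6% acetone, 250 ppm TREM 014), inoculated next day with H. maydis spores, then kept 24 h at 20° in saturated humidity and 7 more days in a growth room. Lesions were rated as disease score.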
# [1] = system: Puccinia recondita var. tritici; test: wheat leaf rust control on wheat seedlings; format: in vivo; details: for pest or weed control at 100 ppm: sprayed day before inoculation
# Method in brief: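 Compounds at 100 ppm (6% acetone, 250 ppm polyhydric alcohol ester surfactant in water) sprayed to run-off on wheat seedlings; inoculated next day with P. recondita spores. Kept 24 h at saturated humidity, 20°, then 7 days in growth room before rust pustule rating.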
# Pythium aphanadermatum [2] = test: Pythium control on coated corn seeds; format: in vivo; details: 504 h, 2 gm/kg seed, 49° F. 2 weeks then 70° F. 1 week
# Description: Several compounds of the previous examples were incorporated into a proprietary formulation and used to coat corn seeds at a rate of 2 gm/kg seed. After being thoroughly coated, the seeds were allowed to air dry at room temperature. The seeds were then planted into soil amended with a mixture of the fungus Pythium aphanadermatum, sand, and corn meal at a rate sufficient to kill most untreated seeds. The seeds were held at 49° F. for 2 weeks and then at 70° F. for 1 additional week. After this time disease ratings were made.
# Cercospora arachidicola = test: peanut early leafspot control on peanut seedlings; format: in vivo; details: Mycosphaerella arachidis, 336 h
# Method in brief: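 Compounds dissolved in acetone (6% of final volume) and suspended at 100 ppm in water with 250 ppm TREM 014, sprayed to run-off on seedlings. Cercospora arachidicola inoculated next day; 24 h saturated humidity at 27°, then 14 days growth room before disease and leafspot rating.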
# Pythium aphanadermatum [3] = test: Pythium control on coated cotton seeds; format: in vivo; details: 168 h; for pest or weed control at 2000 mg/kg: 2 gm/kg seed, 1 week
# From the text: Several compounds of the previous examples were incorporated into a proprietary formulation and used to coat cotton seeds at a rate of 2 gm/kg seed. After being thoroughly coated, the seeds were allowed to air dry at room temperature. The cotton seeds were then planted into soil amended with the fungus Pythium aphanadermatum, sand, and corn meal at a rate sufficient to kill most untreated seeds. The seeds were held at room temperature for 1 week, after which time disease ratings were made.
# Monilinia fructicola = test: stone fruit brown rot colony growth inhibition on canned peach halves; format: cell-based; details: 120 h, dipped 3 minutes, five days, percent growth inhibition of colonies, read-out: % Control Brown Rot
# From the text: Several compounds of the previous examples were again dissolved in acetone in an amount equal to 5% of the final volume and then suspended at a concentration of 100 ppm in purified water containing 700 ppm of the surfactant TREM 014 (polyhydric alcohol esters). Canned peach halves were dipped in this suspension for three minutes and then placed to air dry in sterile containers. Upon drying, the peach halves were inoculated with two pieces of Monilinia fructicola, causal agent of stone fruit brown rot, mycelium and then incubated in the sterile containers for five days. At that time the radii of the colonies' growth were measured on each peach. […] Percent disease contol (percent growth inhibition of colonies on treated peaches as compared to that of colonies on untreated peaches) is expressed in the table below.
# Pyricularia oryzae = test: whole plant or invertebrate; format: in vivo; details: 168 h, read-out: % Control of Rice Blast
# Rhizoctonia solani = test: rice sheath blight control on rice seedlings; format: in vivo; details: Rhizoctonia solani, 168 h, 7 days
# Method in brief: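 Rice seedlings sprayed to run-off with 100 ppm compound suspension (6% acetone, 250 ppm surfactant), then inoculated next day with bran/mycelium of Rhizoctonia solani. After 7 days in a growth room, sheath blight disease was rated.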
# cucumber seedlings = test: phytotoxicity on cucumber seedlings; format: in vivo; set-up: key: G: growth reduction; H: hormonal effects; details: 100 ppm
# apple seedlings = test: phytotoxicity on apple seedlings; format: in vivo; set-up: key: B: Phytotoxic burn; details: 100 ppm
# Description: Compounds of this invention were dissolved in acetone in an amount equal to 6% of the final volume and then suspended at a concentration of 100 ppm in purified water containing 250 ppm of the surfactant TREM 014 (polyhydric alcohol esters). This suspension was sprayed to the point of run-off on apple seedlings. The following day, the plants were inoculated with a spore suspension of the fungus Venturia inaequalis, causal agent of apple scab, and incubated in a saturated humidity chamber at 20° for 24 hours and then in a growth room for an additional 10-12 days. Treated plants from successful treatments had few or no apple scab lesions when compared to untreated plants which were covered with scab lesions.
smiles,measurement,setting,value
C[Si](C)(Cn1ccnc1)c1ccc(Oc2ccccc2)cc1 [(1H-Imidazol-1-ylmethyl)dimethyl(4-phenoxyphenyl)silane],pest or weed control at 100 ppm,Erysiphe cichoracearum,100%
same,pest or weed control at 100 ppm,Venturia inaequalis,100%
same,No. of 5 Phytophthora species controlled in vitro,5 Phytophthora species,4
same,pest or weed control at 100 ppm,Phytophthora infestans,80%
same,pest or weed control at 100 ppm,Erysiphe graminis,0%
same,pest or weed control at 100 ppm,Helminthosporium maydis,0%
same,pest or weed control at 100 ppm,[1],60%
same,pest or weed control at 2000 mg/kg,Pythium aphanadermatum [2],5%
same,pest or weed control at 100 ppm,Cercospora arachidicola,0%
same,pest or weed control at 2000 mg/kg,Pythium aphanadermatum [3],0%
same,inhibition of growth at 100 ppm,Monilinia fructicola,80%
same,pest or weed control at 100 ppm,Pyricularia oryzae,70%
same,pest or weed control at 100 ppm,Rhizoctonia solani,70%
"C[Si](C)(Cn1ccnc1)c1ccc(Cl)c(Cl)c1 [(3,4-Dichlorophenyl)(1H-imidazol-1-ylmethyl)dimethylsilane]",pest or weed control at 100 ppm,Erysiphe cichoracearum,100%
same,pest or weed control at 100 ppm,Venturia inaequalis,80%
same,pest or weed control at 100 ppm,Phytophthora infestans,0%
same,pest or weed control at 100 ppm,Erysiphe graminis,80%
same,pest or weed control at 100 ppm,Helminthosporium maydis,70%
same,pest or weed control at 100 ppm,[1],0%
same,pest or weed control at 2000 mg/kg,Pythium aphanadermatum [2],30%
same,pest or weed control at 100 ppm,Cercospora arachidicola,0%
same,pest or weed control at 500 mg/kg,Pythium aphanadermatum [3]; 0.5 gm/kg seed,15%
same,pest or weed control at 100 ppm,Pyricularia oryzae,0%
same,pest or weed control at 100 ppm,Rhizoctonia solani,0%
C[Si](Cn1ccnc1)(c1ccccc1)c1ccc(Cl)cc1 (centres unmarked) [(4-Chlorophenyl)(1H-imidazol-1-ylmethyl)methyl(phenyl)silane],pest or weed control at 100 ppm,Erysiphe cichoracearum,100%
same,pest or weed control at 100 ppm,Venturia inaequalis,100%
same,No. of 5 Phytophthora species controlled in vitro,5 Phytophthora species,0
same,pest or weed control at 100 ppm,Phytophthora infestans,0%
same,pest or weed control at 100 ppm,Helminthosporium maydis,0%
same,pest or weed control at 100 ppm,[1],100%
same,pest or weed control at 100 ppm,Cercospora arachidicola,100%
same,inhibition of growth at 100 ppm,Monilinia fructicola,45%
same,pest or weed control at 100 ppm,Pyricularia oryzae,0%
same,pest or weed control at 100 ppm,Rhizoctonia solani,0%
C[Si](Cn1ccnc1)(c1ccccc1)c1ccc(F)cc1 (centres unmarked) [(4-Fluorophenyl)(1H-imidazol-1-ylmethyl)methyl(phenyl)silane],pest or weed control at 100 ppm,Erysiphe cichoracearum,100%
same,pest or weed control at 100 ppm,Venturia inaequalis,100%
same,No. of 5 Phytophthora species controlled in vitro,5 Phytophthora species,2
same,pest or weed control at 100 ppm,Phytophthora infestans,0%
same,pest or weed control at 100 ppm,Helminthosporium maydis,80%
same,pest or weed control at 100 ppm,[1],0%
same,pest or weed control at 100 ppm,Cercospora arachidicola,100%
same,inhibition of growth at 100 ppm,Monilinia fructicola,65%
same,pest or weed control at 100 ppm,Pyricularia oryzae,100%
same,pest or weed control at 100 ppm,Rhizoctonia solani,90%
"CCCC[Si](C)(Cn1ccnc1)c1ccc(Cl)cc1Cl (centres unmarked) [Butyl(2,4-dichlorophenyl)(1H-imidazol-1-ylmethyl)methylsilane]",pest or weed control at 100 ppm,Erysiphe cichoracearum,100%
same,pest or weed control at 100 ppm,Venturia inaequalis,100%
same,pest or weed control at 100 ppm,Phytophthora infestans,0%
same,pest or weed control at 100 ppm,Helminthosporium maydis,80%
same,pest or weed control at 100 ppm,[1],100%
same,Phytotoxicity (growth reduction or hormonal effects),cucumber seedlings,G
same,pest or weed control at 100 ppm,Cercospora arachidicola,100%
same,Phytotoxic burn,apple seedlings,B
same,pest or weed control at 100 ppm,Pyricularia oryzae,0%
same,pest or weed control at 100 ppm,Rhizoctonia solani,90%
CCCC[Si](C)(Cn1ccnc1)c1ccc(Cl)cc1 (centres unmarked) [Butyl(4-chlorophenyl)(1H-imidazol-1-ylmethyl)methylsilane],pest or weed control at 100 ppm,Erysiphe cichoracearum,100%
same,pest or weed control at 100 ppm,Venturia inaequalis,90%
same,pest or weed control at 100 ppm,Phytophthora infestans,0%
same,pest or weed control at 100 ppm,Erysiphe graminis,100%
same,pest or weed control at 100 ppm,Helminthosporium maydis,50%
same,pest or weed control at 100 ppm,[1],90%
same,pest or weed control at 2000 mg/kg,Pythium aphanadermatum [2],0%
same,Phytotoxicity (growth reduction or hormonal effects),cucumber seedlings,G
same,pest or weed control at 100 ppm,Cercospora arachidicola,0%
same,pest or weed control at 2000 mg/kg,Pythium aphanadermatum [3],0%
same,inhibition of growth at 100 ppm,Monilinia fructicola,45%
same,pest or weed control at 100 ppm,Pyricularia oryzae,0%
same,pest or weed control at 100 ppm,Rhizoctonia solani,0%
C[Si](C)(Cn1ccnc1)C1CCCCC1 [Cyclohexyl(dimethyl(1H-imidazol-1-ylmethyl)silane],pest or weed control at 100 ppm,Erysiphe cichoracearum,100%
same,pest or weed control at 100 ppm,Venturia inaequalis,100%
same,pest or weed control at 100 ppm,Helminthosporium maydis,50%
same,pest or weed control at 100 ppm,[1],0%
same,Phytotoxicity (growth reduction or hormonal effects),cucumber seedlings,G
same,pest or weed control at 100 ppm,Cercospora arachidicola,0%
same,Phytotoxic burn,apple seedlings,B
same,pest or weed control at 100 ppm,Rhizoctonia solani,0%
COc1ccc([Si](C)(C)Cn2ccnc2)cc1 [Dimethyl(1H-imidazol-1-ylmethyl)(4-methoxyphenyl)silane],pest or weed control at 100 ppm,Erysiphe cichoracearum,100%
same,pest or weed control at 100 ppm,Venturia inaequalis,0%
same,No. of 5 Phytophthora species controlled in vitro,5 Phytophthora species,0
same,pest or weed control at 100 ppm,Phytophthora infestans,0%
same,pest or weed control at 100 ppm,Erysiphe graminis,100%
same,pest or weed control at 100 ppm,Helminthosporium maydis,0%
same,pest or weed control at 100 ppm,[1],60%
same,pest or weed control at 100 ppm,Cercospora arachidicola,0%
same,pest or weed control at 100 ppm,Pyricularia oryzae,0%
same,pest or weed control at 100 ppm,Rhizoctonia solani,0%
CCCCCCCCCCCC[Si](C)(C)Cn1ccnc1 [Dodecyl(dimethyl)(1H-imidazol-1-ylmethyl)silane],pest or weed control at 100 ppm,Erysiphe cichoracearum,55%
same,pest or weed control at 100 ppm,Venturia inaequalis,0%
same,pest or weed control at 200 ppm,Erysiphe graminis; 200 ppm,100%
same,pest or weed control at 100 ppm,Helminthosporium maydis,0%
same,pest or weed control at 400 ppm,[1]; 400 ppm,80%
same,Phytotoxic burn,apple seedlings,B
C[Si](C)(Cn1ccnc1)c1ccc(Oc2ccc(Cl)cc2)cc1 [[4-(4-Chlorophenoxy)phenyl]dimethyl(1H-imidazol-1-ylmethyl)silane],pest or weed control at 100 ppm,Erysiphe cichoracearum,100%
same,pest or weed control at 100 ppm,Venturia inaequalis,0%
same,No. of 5 Phytophthora species controlled in vitro,5 Phytophthora species,0
same,pest or weed control at 100 ppm,Phytophthora infestans,0%
same,pest or weed control at 100 ppm,Helminthosporium maydis,0%
same,pest or weed control at 100 ppm,[1],90%
same,pest or weed control at 2000 mg/kg,Pythium aphanadermatum [2],0%
same,pest or weed control at 100 ppm,Cercospora arachidicola,0%
same,pest or weed control at 100 ppm,Pyricularia oryzae,100%
same,pest or weed control at 100 ppm,Rhizoctonia solani,70%
C[Si](Cn1ccnc1)(c1ccc(F)cc1)c1ccc(F)cc1 [bis(4-Fluorophenyl)(1H-imidazol-1-ylmethyl)methylsilane],pest or weed control at 100 ppm,Erysiphe cichoracearum,100%
same,pest or weed control at 100 ppm,Venturia inaequalis,100%
same,No. of 5 Phytophthora species controlled in vitro,5 Phytophthora species,0
same,pest or weed control at 100 ppm,Phytophthora infestans,0%
same,pest or weed control at 100 ppm,Helminthosporium maydis,60%
same,pest or weed control at 100 ppm,[1],100%
same,pest or weed control at 100 ppm,Cercospora arachidicola,100%
same,pest or weed control at 100 ppm,Pyricularia oryzae,0%
same,pest or weed control at 100 ppm,Rhizoctonia solani,90%
